Test results from ChEMBL document CHEMBL1201862, “PubChem BioAssay data set” (2004).
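Five concentrations, 48 hours, 96-well plates. GI50 = concentration required for 50% inhibition of growth.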 Calls of active or inactive are those of the source. No stated cut-off is given here; in the data, active = GI50 up to about 1.1 µM and inactive = higher.

Assays:
Experiment in all cases: NCI tumour cell line growth inhibition, 48 h
A549 = tested on: A549
ACHN = tested on: ACHN
CAKI-1 = tested on: CAKI-1
CCRF-CEM = tested on: CCRF-CEM
DLD-1 = tested on: DLD-1
DMS-273 = tested on: DMS-273
HCT-116 = tested on: HCT-116
HT-29 = tested on: HT-29
KM12 = tested on: KM12
LXFL 529 = tested on: LXFL 529
SK-MEL-28 = tested on: SK-MEL-28
SK-MEL-2 = tested on: SK-MEL-2
SNB-19 = tested on: SNB-19
TK-10 = tested on: TK-10
NCI-H226 = tested on: NCI-H226

Measured: GI50

O=C1CC(=O)N(CCc2ccccc2)S(=O)(=O)N1CCc1ccccc1
inactive: A549 24.4 µM | ACHN 35.9 µM | CAKI-1 22.2 µM | CCRF-CEM 17.2 µM | DLD-1 43.5 µM | DMS-273 22.5 µM | HCT-116 28.7 µM | HT-29 23 µM | KM12 16.2 µM | LXFL 529 19.8 µM | SK-MEL-28 28.1 µM | SK-MEL-2 22.6 µM | SNB-19 29.2 µM | TK-10 36.6 µM

O=C1CNC(=O)c2[nH]cnc2N1
inactive: A549 > 100 µM | ACHN > 100 µM | CCRF-CEM > 100 µM | DLD-1 > 100 µM | DMS-273 > 100 µM | HT-29 > 100 µM | KM12 > 100 µM | LXFL 529 > 100 µM | NCI-H226 > 100 µM | SK-MEL-28 > 100 µM | SNB-19 > 100 µM | TK-10 > 100 µM

CCOC(=O)C(Oc1ccc(OC)c2c1C(=O)CCC2)c1ccccc1 (stereo not given)
inactive: A549 > 100 µM | ACHN > 100 µM | CAKI-1 > 100 µM | CCRF-CEM 65.5 µM | DLD-1 > 100 µM | DMS-273 98.9 µM | HCT-116 84.7 µM | HT-29 53.1 µM | KM12 > 100 µM | LXFL 529 > 100 µM | SK-MEL-28 > 100 µM | SK-MEL-2 > 100 µM | SNB-19 > 100 µM | TK-10 > 100 µM

Nc1c(-c2ccc(-c3c(N)[n+]([O-])c4ccccc4[n+]3[O-])cc2)[n+]([O-])c2ccccc2[n+]1[O-]
inactive: A549 20.9 µM | ACHN 16.2 µM | CAKI-1 6.65 µM | CCRF-CEM 38.7 µM | DLD-1 11.8 µM | DMS-273 14.2 µM | HT-29 12.1 µM | KM12 11.1 µM | LXFL 529 7.87 µM | NCI-H226 20.6 µM | SK-MEL-28 5.73 µM | SK-MEL-2 13.7 µM | SNB-19 13.7 µM | TK-10 17.6 µM

CCOc1ccccc1N1C(=O)C(=O)C(c2nc3ccccc3o2)C(=O)C1=O
inactive: A549 48.6 µM | ACHN 28.3 µM | CAKI-1 66.8 µM | CCRF-CEM > 100 µM | DLD-1 > 100 µM | DMS-273 > 100 µM | HCT-116 70.5 µM | HT-29 > 100 µM | LXFL 529 > 100 µM | NCI-H226 > 100 µM | SK-MEL-28 > 100 µM | SK-MEL-2 > 100 µM | SNB-19 > 100 µM | TK-10 39.7 µM

Clc1cc(Cl)cc(Nc2nc3ccccc3nc2-c2cccs2)c1
inactive: A549 38.5 µM | ACHN 19.4 µM | CCRF-CEM > 100 µM | DLD-1 41.4 µM | DMS-273 14.2 µM | HCT-116 18.5 µM | HT-29 14 µM | LXFL 529 35.8 µM | NCI-H226 40 µM | SK-MEL-28 > 10 µM | SK-MEL-2 > 100 µM | SNB-19 > 10 µM | TK-10 37.9 µM

C=CCC1=C2CCCCC2CCC1=O (stereo not given)
inactive: A549 > 100 µM | ACHN > 100 µM | CAKI-1 > 100 µM | CCRF-CEM > 100 µM | DLD-1 > 100 µM | DMS-273 > 100 µM | HCT-116 > 100 µM | KM12 > 100 µM | LXFL 529 > 100 µM | SK-MEL-28 > 100 µM | SK-MEL-2 > 100 µM | SNB-19 > 100 µM | TK-10 > 100 µM

CN1N=C2c3ccccc3OC(c3ccccc3)[C@H]2C1c1ccccc1 (stereo not given in full)
inactive: A549 72.9 µM | ACHN > 100 µM | CCRF-CEM 38.4 µM | DLD-1 95.3 µM | DMS-273 > 100 µM | HCT-116 29.7 µM | HT-29 42.1 µM | KM12 > 100 µM | LXFL 529 37.6 µM | NCI-H226 > 100 µM | SK-MEL-28 > 100 µM | SK-MEL-2 > 100 µM | SNB-19 > 100 µM | TK-10 > 100 µM

C=C(C)C1C/C=C(/C)CCCC2(CCC3=C(CC(C(=C)C)C/C=C(/C)CCC3)O2)C(=O)C1 (stereo not given)
inactive: A549 > 100 µM | ACHN > 100 µM | CCRF-CEM > 100 µM | DLD-1 > 100 µM | DMS-273 > 100 µM | HCT-116 54.7 µM | HT-29 > 100 µM | KM12 > 100 µM | LXFL 529 > 100 µM | NCI-H226 > 100 µM | SK-MEL-28 > 100 µM | SK-MEL-2 > 100 µM | SNB-19 > 100 µM | TK-10 > 100 µM

O=C(O)CN(c1ccccc1)S(=O)(=O)c1ccc([N+](=O)[O-])cc1
inactive: A549 > 100 µM | ACHN > 100 µM | CAKI-1 > 100 µM | CCRF-CEM > 100 µM | DLD-1 > 100 µM | DMS-273 > 100 µM | HT-29 > 100 µM | KM12 > 100 µM | LXFL 529 > 100 µM | NCI-H226 > 100 µM | SK-MEL-2 > 100 µM | SNB-19 > 100 µM | TK-10 > 100 µM
